Reference: patent US20220273823A1, “THERANOSTIC CONJUGATES” (Ariel Scientific Innovations Ltd., priority 2019, published 2022)
Like-named read-outs stand apart in the source and are kept apart here. One block for each compound: values may come before it.

Experiments:
Panc-1 = assay: XTT cell survival assay (growth inhibition), Panc-1; type: cell-based, human; details: Panc-1, XTT, up to 25 μM
Protocol: (§1) The cytotoxicity of the peptide-drug conjugates was determined by measuring the mitochondrial enzyme activity, using a commercial XTT assay kit. All samples were prepared in PBS pH 7.4 contained 3% DMSO. The Cells were cultured in micro wells at a concentration 5-10×10^4 cells/well. The cells were washed and fresh cell medium containing different concentrations (up to 25 μM) of the conjugates were added and the cells were incubated for 10 minutes. The cultures were washed and then given a fresh medium and cultured for 48 hours and 72 hours. At the end of the second incubation, XTT reagent was added and the cells were re-incubated for additional 2-4 hours. During that time the absorbencies in the wells were measured with a TECAN Infinite M200 ELISA reader at 480 nm and 680 nm. The difference in the absorbencies measurements at these two wavelengths was used for calculating the percentage Growth Inhibition (GI) in test wells compared to two controls: cells that were exposed to the medium and solvent, and those which were exposed to a solvent-free medium. All the tests were done in triplicate.

CHO = assay: XTT cell survival assay (growth inhibition), CHO; type: cell-based, Chinese hamster; details: up to 25 μM
Protocol: as §1

[1] = Absorption and emission spectra of XCy, XCy-CLB and OCTA-G-XCy-CLB in PB and CM; type: physicochemical; details: for λmaxFl: λex 650 nm; for absorption maximum / fluorescence: in PB and CM
Protocol: The absorption and emission spectra of XCy, XCy-CLB and OCTA-G-XCy-CLB were investigated in two different conditions, 10 mM phosphate buffer pH 7.4 containing 10% methanol (PB) and cell medium pH 7.4 containing 10% methanol (CM) (see, Table 1 below). CM was taken as a model of normal physiological conditions during drug delivery in the experiments with cells. A RPMI-1640 standard cell medium that contains 50 mL fetal bovine serum (FBS), 5 mL penicillin (10,000 U/mL), 5 mL streptomycin (10 mg/mL), 5 mL of 200 mM glutamine, and 5.3 mg/L phenol red indicator was utilized. FBS contains enzyme aspartate-aminotransferase that facilitates the ester bond cleavage.
(§2) Absorption spectra were recorded on a Jasco V-730 UV-Vis spectrophotometer and the fluorescence spectra were measured on Edinburgh FS5 spectrofluorometer. The absorption and fluorescence spectra were measured in 1-cm quartz cells at about 0.5 μM dye concentrations in PB 10 mmol buffer pH 7.4 at 25° C. and cell medium pH 7.4. Excitation wavelength was 650 nm. All the solutions were filtered in PVDF 0.45 μm filter before taking spectrum.

[2] = Time-dependent absorption/fluorescence CLB cleavage profiles of XCy-CLB and OCTA-G-XCy-CLB in PB and cell medium; type: in vitro ADME; details: read-out: CLB release half-life τ1/2 (converted)
Protocol: To estimate the rate of the CLB release, the time-dependent absorption and fluorescence spectra of XCy-CLB and OCTA-G-XCy-CLB were measured in PB and CM (see, FIGS. 5A-H). With respect to time, the absorption band at about 600 nm decreases, a new band at about 680 nm increases and a fluorescence band subsequently appears at ˜708 nm (λex=650 nm).
Based of the time-dependent absorption and emission spectra, corresponding drug cleavage profiles were obtained (see, FIGS. 6A-B) and the drug release rates were quantified by half-lives (τ1/2). The cleavage profiles and half-lives obtained spectrophotometrically and spectrofluorometrically almost coincide. […] The release of CLB from OCTA-G-XCy-CLB in CM (τ1/2˜25 min) is […] faster than that in PB τ1/2 ˜2.5 h. Thus, the drug release for both XCy-CLB and OCTA-G-XCy-CLB in CM is much faster compared to PB. The obtained half-lives of the ester bond cleavage in these media were found in good agreement with some reported data. Linkage of OCTA to the conjugate accelerates the drug release by factor of 6 in PB and 1.3 in CM.
as §2

[3] = Real time fluorescence microscopy monitoring of CLB release in CHO cells (negative control); type: cell-based, Chinese hamster; details: hamster, pH 7.4, 10 min incubation with 10 μM, 37° C., read-out: CLB cleavage half-life τ1/2 (converted)
Protocol: (§3) In the next step, the inventors investigated the performance of OCTA-G-XCy-CLB in real time monitoring of drug delivery and drug release into human pancreatic cancer cell line (Panc-1). As a negative control, Chinese hamster ovary cell line (CHO) was employed. Panc-1 contains overexpressed somatostatin receptors SSTR-2 and SSTR-5 while the CHO has the decreased number of these receptors. Panc-1 and CHO were incubated at 37° C. for 10 min with 10 μM OCTA-G-XCy-CLB in PBS pH 7.4 containing 3% DMSO and washed thoroughly with PBS pH 7.4 to remove excess conjugate. Then the fluorescence microscopy images were taken over time (FIGS. 7A, B). The fluorescence intensities for both cell lines gradually increase over time signaling the CLB release. […]
(§4) To monitor drug release, Panc-1 and CHO cell lines were grown in six-well culture plates and then washed with PBS (pH 7.4) two times after that incubated for 10 min with 10 μM OCT(N)-G-XCy-CLB in PBS pH 7.4 containing 3% DMSO. […] The washed cell samples were resuspended in PBS and immediately analyzed the fluorescence changes by using fluorescent microscope. […]
(§5) The band intensities in a representative experiment were quantified by creating region of interest (ROI) around each image and the relative fluorescence intensity of each sample was measured (via the “Measure” function) with Image J software.

[4] = Real time fluorescence microscopy monitoring of CLB release in Panc-1 cells; type: cell-based; details: human, pH 7.4, Panc-1, 10 min incubation with 10 μM, 37° C., read-out: CLB cleavage half-life τ1/2
Protocol: as §3, §4, §5

[5] = Spectral properties of RD, IRD-CLB and 5-CLB in PB and CM; type: physicochemical
Protocol: The spectral properties of the dye RD and its conjugates IRD-CLB and 5-CLB were measured at the concentrations (c) of 0.6 μM in 10 mM phosphate buffer pH 7.5 (PB) and cell medium pH 7.5 (CM), both containing 20% of acetonitrile (ACN) to improve solubility of the compounds.
Table 2 presents the absorption (λmaxAb) and emission (λmaxFl) maxima, extinction coefficients (ε) and fluorescence quantum yields (ΦF) of the RD dye and IRD-CLB and 5-CLB conjugates measured at 25° C. in 10 mM phosphate buffer pH 7.5 (PB) and cell medium pH 7.5 (CM).
The biodegradable ester linker (BL) in IRD-CLB and 5-CLB can be hydrolyzed to release free CLB and, accordingly, IRD turns into RD, which is accompanied by a noticeable change in the spectral properties. The time-dependent emission spectra were recorded in PB and CM (see, FIGS. 9A-D) using the excitation wavelengths 720 nm and 532 nm. The first one enabled monitoring of the decrease in the concentration of IRD-CLB and 5-CLB, while the second one—the increase in the concentration of RD and OctA-RD. Only the NIR fluorescence of IRD-CLB and 5-CLB was detected, when excited at 720 nm; and only the red fluorescence of RD and OctA-RD was detected, when excited at 532 nm.
Absorption spectra were recorded on a Jasco V-730 UV-Vis spectrophotometer and the fluorescence spectra were measured on Edinburgh FS5 spectrofluorometer. The absorption and fluorescence spectra and the quantum yields (ΦF) were measured in a 1-cm quartz cell at ˜0.5 μM dye concentrations in PB 10 mmol buffer pH 7.4 at 25° C. and cell medium pH 7.4. Excitation wavelength was 720 nm and 532 nm. The recorded fluorescence spectra were corrected using the wavelength-dependent instrument sensitivity coefficients. Absorption and emission maxima were measured with accuracy of ±0.3 nm and ±0.5 nm, respectively, and rounded. For the determination of the quantum yields, the integrated relative intensities were measured versus ICG™ in methanol as the reference (ΦF=0.043) and Cy3™ in PBS (ΦF=0.043). The absorbance values measured for the samples and the reference at the excitation wavelength were 0.04-0.06 measured in a 1-cm cell. The absolute quantum yields were calculated according to Equation 1.

[6] = CM: cell medium pH 7.4 containing 10% methanol
[7] = PB: 10 mM phosphate buffer pH 7.4 containing 10% methanol
[8] = PB:ACN (4:1, v/v), 25° C., c=0.6 μM

Compound: octreotide amide
Growth Inhibition (GI) / toxicity (Panc-1): neither free OCT, nor free CLB exhibited detectible toxicity
Growth Inhibition (GI) / toxicity (CHO): neither free OCT, nor free CLB exhibited detectible toxicity

λmaxAbs [1, 6]: 679 nm
λmaxFl [1, 6]: 713 nm
λmaxAbs [1, 7]: 681 nm
λmaxFl [1, 7]: 708 nm
absorption maximum [1]: about 680 nm
fluorescence [1]: around 710 nm
Compound: CC1(C)C(/C=C/C2=C3Oc4cc(O)ccc4C=C3CCC2)=[N+](CCCCCC(=O)O)c2ccccc21 [XCy, (E)-1-(5-carboxypentyl)-2-(2-(6-hydroxy-2,3-dihydro-1H-xanthen-4-yl)vinyl)-3,3-dimethyl-3H-indol-1-ium]

Compound: C[C@@H](O)[C@H](NC(=O)[C@@H]1CSSC[C@H](NC(=O)[C@H](Cc2ccccc2)NC(=O)CCCNC(=O)CCCCC[N+]2=C(/C=C/C3=C4Oc5cc(OC(=O)CCCc6ccc(N(CCCl)CCCl)cc6)ccc5C=C4CCC3)C(C)(C)c3ccccc32)C(=O)N[C@@H](Cc2ccccc2)C(=O)N[C@@H](Cc2c[nH]c3ccccc23)C(=O)N[C@@H](CCCCN)C(=O)N[C@@H]([C@@H](C)O)C(=O)N1)C(N)=O [OCTA-G-XCy-CLB]
Growth Inhibition (GI) / toxicity (Panc-1): significantly elevated growth inhibition compared to CHO
λmaxAbs [1, 6]: 604 nm
λmaxFl [1, 6]: No fl.
λmaxAbs [1, 7]: 604 nm
λmaxFl [1, 7]: No fl.
absorption maximum [1]: ~600 nm
fluorescence [1]: not detectable
half-life at 0.5 μM ([2]; bovine, cell medium (contains esterase), in CM (cell medium pH 7.4, esterase present)): ~0.417 h
half-life at 0.5 μM ([2]; phosphate buffer (PB), in PB pH 7.4): ~2.5 h
half-life at 10 μM [3]: ~2.5 h
half-life at 10 μM [4]: ~0.417 h

Compound: C[N+]1=C(C=CC2=C(OC(=O)CCCc3ccc(N(CCCl)CCCl)cc3)C(=CC=C3N(CCCCCC(=O)O)c4ccccc4C3(C)C)CCC2)C(C)(C)c2ccccc21 [IRD-CLB, 2-(−2-(−2-((4-(4-(bis(2-chloroethyl)amino)phenyl)butanoyl)oxy)-3-(2-(−1-(5-carboxypentyl)-3,3-dimethylindolin-2-ylidene)ethylidene)cyclohex-1-en-1-yl)vinyl)-1,3,3-trimethyl-3H-indol-1-ium]
ΦF ([5]; CM:ACN (4:1, v/v), 25° C.): 6.3%
λmaxAb ([5]; CM:ACN (4:1, v/v), 25° C.): 785 nm
λmaxFl ([5]; CM:ACN (4:1, v/v), 25° C.): 805 nm
emission when excited at 532 nm ([5]; PB and CM): no detectable emission
ΦF ([5]; PB:ACN (4:1, v/v), 25° C.): 2.9%
ε ([5]; PB:ACN (4:1, v/v), 25° C.): 160,000 M^−1cm^−1
λmaxFl ([5]; PB:ACN (4:1, v/v), 25° C.): 795 nm
λmaxAb [5, 8]: 775 nm

Compound: CC1(C)C(/C=C/C2=C3Oc4cc(OC(=O)CCCc5ccc(N(CCCl)CCCl)cc5)ccc4C=C3CCC2)=[N+](CCCCCC(=O)O)c2ccccc21 [XCy-CLB, (E)-2-(2-(6-((4-(4-(bis(2-chloroethyl)amino)phenyl)butanoyl)oxy)-2,3-dihydro-1H-xanthen-4-yl)vinyl)-1-(5-carboxypentyl)-3,3-dimethyl-3H-indol-1-ium]
λmaxAbs [1, 6]: 602 nm
λmaxFl [1, 6]: No fl.
λmaxAbs [1, 7]: 598 nm
λmaxFl [1, 7]: No fl.
absorption maximum [1]: ~600 nm
fluorescence [1]: not detectable
half-life ([2]; bovine, in CM (cell medium pH 7.4, esterase present)): ~0.667 h
half-life ([2]; phosphate buffer, in PB pH 7.4): ~8 h

Compound: O=C(O)CCCc1ccc(N(CCCl)CCCl)cc1 [CLB, chlorambucil]
Growth Inhibition (GI) / toxicity (Panc-1): neither free OCT, nor free CLB exhibited detectible toxicity
Growth Inhibition (GI) / toxicity (CHO): neither free OCT, nor free CLB exhibited detectible toxicity

ΦF ([5]; CM:ACN (4:1, v/v), 25° C.): 2.6%
λmaxAb ([5]; CM:ACN (4:1, v/v), 25° C.): 526 nm
λmaxFl ([5]; CM:ACN (4:1, v/v), 25° C.): 626 nm
ΦF ([5]; PB:ACN (4:1, v/v), 25° C.): 9.9%
λmaxFl ([5]; PB:ACN (4:1, v/v), 25° C.): 643 nm
λmaxAb [5, 8]: 555 nm
Compound: CN1C(=CC=C2CCCC(=CC=C3N(CCCCCC(=O)O)c4ccccc4C3(C)C)C2=O)C(C)(C)c2ccccc21 [RD, 6-(−3,3-dimethyl-2-(−2-(−2-oxo-3-(2-(−1,3,3-trimethylindolin-2-ylidene)ethylidene)cyclohexylidene)ethylidene)indolin-1-yl)hexanoic acid]
